From patent US11912699B2, “Tau-protein targeting compounds and associated” (Arvinas Operations, Inc., priority 2019, dated 2024)

Biological target: T1, Tau P301L (Homo sapiens, UniProt P10636, P618L)
T1 construct: expressed in transfected cells
Experiment: In vitro tau degradation assay in CHOK1 Tau P301L cells (sarkosyl insoluble tau, WES)
Assay type: cell-based
Settings: remaining tau protein in sarkosyl insoluble pellet, CHOK1 Tau P301L cells treated 48 hours with test compound at 1 μM, doxycycline removed for the last 24 hours, relative to DMSO doxycycline control; for remaining activity at 1 µM: CHO-K1, read-out: Tau Protein Degradation effect at 1 μM
Description: Exemplary bifunctional molecules of the present disclosure are represented by the structures in Table 1, which includes associated data. In vitro tau protein degradation data in CHOK1 Tau P301L cells, as described below, is reported based on the remaining tau protein in the sarkosyl insoluble pellet following treatment of cells for 48 hours with test compound at the 1 μM concentration where the last 24 hours doxycycline was removed. The data are represented relative to DMSO doxycycline control: • A ≤50% of tau protein remaining (>50% of tau protein degraded) • B >50% of tau protein remaining ([…] of tau protein degraded)
Data for compounds in Table 1 was generated using in vitro tau Degradation Assay protocol as described in Methods for FIGS. 2A and 2B below.
FIGS. 2A and 2B. (2A) Tau expression was induced by addition (+) of doxycycline (1 μg/ml) to ChoK1-Tau P301L clone D1.
In vitro tau Degradation Assay for FIGS. 2A and 2B. T-Rex CHOK1 cells are maintained in Ham's F-12 Nutrient Mix (ThermoFisher) plus 10% Fetal Bovine Serum Tetracycline Negative (Corning) with 10 ug/mL Blasticidin S HCl (Gibco) and 200 ug/mL Zeocin (100 mg/mL, Invitrogen). A stable clone expressing Tau P301L in the presence of doxycycline (1 μg/ml), clone D1 was selected. Compounds were diluted to indicated concentrations and used to treat cells for the indicated times. Cells were harvested from either 96, 24, 6, or 10 cm dishes coated with Poly-D-Lysine (Corning) in ice cold PBS or Buffer H+HALT Protease and phosphatase inhibitors (Thermofisher). Sarkosyl Insoluble tau was isolated as described in Eckermann et al. and Greenberg and Davies, accordingly. WES™ capillary electrophoresis analysis was performed on the Sarkosyl Insoluble tau fraction using Tau1 antibody (Milipore) unless otherwise indicated, as specified in the manufacturers specification (ProteinSimple).

T1 sequence (P10636 1-441 isoform P10636-8 P301L): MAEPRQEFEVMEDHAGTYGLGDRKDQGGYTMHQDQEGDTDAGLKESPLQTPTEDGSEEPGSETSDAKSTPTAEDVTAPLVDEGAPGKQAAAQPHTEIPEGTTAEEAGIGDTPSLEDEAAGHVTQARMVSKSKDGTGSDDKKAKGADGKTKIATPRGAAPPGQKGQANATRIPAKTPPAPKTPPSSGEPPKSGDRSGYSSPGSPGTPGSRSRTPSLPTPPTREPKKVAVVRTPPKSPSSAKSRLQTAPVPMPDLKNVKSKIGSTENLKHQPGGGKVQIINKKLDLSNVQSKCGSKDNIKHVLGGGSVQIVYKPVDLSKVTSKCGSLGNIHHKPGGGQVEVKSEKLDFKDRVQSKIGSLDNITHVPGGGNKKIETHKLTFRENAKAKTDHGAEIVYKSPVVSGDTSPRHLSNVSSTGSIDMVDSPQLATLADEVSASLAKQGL

Cc1ncsc1-c1ccc([C@H](C)NC(=O)[C@@H]2C[C@@H](O)CN2C(=O)[C@@H](c2cc(OCCN3CCC(OC4CN(c5ccc(-c6ccc7c8cnccc8n(C)c7c6)cn5)C4)CC3)no2)C(C)C)cc1 (single isomer, unassigned) [Compound 467]
remaining activity at 1 µM: > 50%

Cc1ncsc1-c1ccc([C@H](C)NC(=O)[C@@H]2C[C@@H](O)CN2C(=O)C(c2cc(OCCOCCOCCOc3ccc(-c4ccc5c(c4)[nH]c4ccncc45)cn3)no2)C(C)C)cc1 (stereo in doubt) [Compound 395, (2S,4R)-1-((S)-2-(3-(2-(2-(2-((5-(5H-pyrido[4,3-b]indol-7-yl)pyridin-2-yl)oxy)ethoxy)ethoxy)ethoxy)isoxazol-5-yl)-3-methylbutanoyl)-4-hydroxy-N-((S)-1-(4-(4-methylthiazol-5-yl)phenyl)ethyl) pyrrolidine-2-carboxamide]
remaining activity at 1 µM: > 50%

Cn1c2ccncc2c2ccc(-c3ccc(O[C@H]4C[C@H](Oc5ccc(C#CCN6CC(Oc7ccc8c(c7)CN(C7CCC(=O)NC7=O)C8=O)C6)nc5)C4)nc3)cc21 (some centres unmarked) [Compound 340, 3-(5-((1-(3-(5-((1r,3r)-3-((5-(5-methyl-5H-pyrido[4,3-b]indol-7-yl)pyridin-2-yl)oxy)cyclobutoxy)pyridin-2-yl)prop-2-yn-1-yl)azetidin-3-yl)oxy)-1-oxoisoindolin-2-yl)piperidine-2,6-dione]
remaining activity at 1 µM: > 50%

Cn1c2ccncc2c2ccc(-c3ccc(O[C@H]4C[C@H](OC5CCN(CCN6CCN(c7ccc8c(c7)C(=O)N(C7CCC(=O)NC7=O)C8=O)CC6)CC5)C4)nc3)cc21 (some centres unmarked) [Compound 341, 2-(2,6-dioxopiperidin-3-yl)-5-(4-(2-(4-((1r,3r)-3-((5-(5-methyl-5H-pyrido[4,3-b]indol-7-yl)pyridin-2-yl)oxy)cyclobutoxy)piperidin-1-yl)ethyl)piperazin-1-yl) isoindoline-1,3-dione]
remaining activity at 1 µM: > 50%

Cn1c2ccncc2c2ccc(-c3ccc(O[C@H]4C[C@H](OCCCN5CCN(c6ccc7c(c6)C(=O)N(C6CCC(=O)NC6=O)C7=O)CC5)C4)nc3)cc21 (some centres unmarked) [Compound 343, 2-(2,6-dioxopiperidin-3-yl)-5-(4-(3-((1r,3r)-3-((5-(5-methyl-5H-pyrido[4,3-b]indol-7-yl)pyridin-2-yl)oxy)cyclobutoxy)propyl)piperazin-1-yl)isoindoline-1,3-dione]
remaining activity at 1 µM: < 50%

Cn1c2ccncc2c2ccc(-c3ccc(O[C@H]4C[C@H](Oc5ccc(C#CCNCCCc6ccc7c(c6)CN(C6CCC(=O)NC6=O)C7=O)nc5)C4)nc3)cc21 (some centres unmarked) [Compound 346, 3-(5-(3-((3-(5-((1r,3r)-3-((5-(5-methyl-5H-pyrido[4,3-b]indol-7-yl)pyridin-2-yl)oxy)cyclobutoxy)pyridin-2-yl)prop-2-yn-1-yl)amino)propyl) 1-oxoisoindolin-2-yl)piperidine-2,6-dione]
remaining activity at 1 µM: > 50%

Cc1ncsc1-c1ccc([C@H](C)NC(=O)[C@@H]2C[C@@H](O)CN2C(=O)[C@@H](NC(=O)COCCOCCOCCOCCOCCOc2cc3ccn(-c4cc5c(N)cccc5cn4)c3cn2)C(C)(C)C)cc1 [Compound 351, (2S,4R)-1-((S)-20-((1-(5-aminoisoquinolin-3-yl)-1H-pyrrolo[2,3-c]pyridin-5-yl)oxy)-2-(tert-butyl)-4-oxo-6,9,12,15,18-pentaoxa-3-azaicosanoyl)-4-hydroxy-N-((S)-1-(4-(4-methylthiazol-5-yl)phenyl)ethyl) pyrrolidine-2-carboxamide]
remaining activity at 1 µM: > 50%

Nc1cccc2cnc(-n3ccc4cc(OCCOCCOCCOCCOCCOc5ccc6c(c5)C(=O)N(C5CCC(=O)NC5=O)C6=O)ncc43)cc12 (centres unmarked) [Compound 352, 5-((14-((1-(5-aminoisoquinolin-3-yl)-1H-pyrrolo[2,3-c]pyridin-5-yl)oxy)-3,6,9, 12-tetraoxatetradecyl)oxy)-2-(2,6-dioxo-piperidin-3-yl) isoindoline-1,3-dione]
remaining activity at 1 µM: < 50%

Nc1cccc2cnc(-n3ccc4cc(OCCOCCOCCOCCOc5ccc6c(c5)C(=O)N(C5CCC(=O)NC5=O)C6=O)ncc43)cc12 (centres unmarked) [Compound 353, 5-(2-(2-(2-(2-((1-(5-aminoisoquinolin-3-yl)-1H-pyrrolo[2,3-c]pyridin-5-yl)oxy)ethoxy)ethoxy)ethoxy)ethoxy)-2-(2,6-dioxopipieridin-3-yl)isoindoline-1,3-dione]
remaining activity at 1 µM: < 50%

Cc1cnc(Nc2ccc3cnccc3c2)cc1OCCOCCOCCOCCOc1ccc2c(c1)C(=O)N(C1CCC(=O)NC1=O)C2=O (centres unmarked) [Compound 369, 2-(2,6-dioxopiperidin-3-yl)-5-(2-(2-(2-(2-((2-(isoquinolin-6-ylamino)-5-methylpyridin-4-yl)oxy)ethoxy)ethoxy)ethoxy)ethoxy) isoindoline-1,3-dione]
remaining activity at 1 µM: < 50%

Cc1ncsc1-c1ccc([C@H](C)NC(=O)[C@@H]2C[C@@H](O)CN2C(=O)[C@@H](c2cc(OCCN3CCN(CCN4CCC(O[C@H]5C[C@H](Oc6ccc(-c7ccc8c9cnccc9n(C)c8c7)cn6)C5)CC4)CC3)no2)C(C)C)cc1 [Compound 372, (2S,4R)-4-hydroxy-1-((R)-3-methyl-2-(3-(2-(4-(2-(4-((1r,3r)-3-((5-(5-methyl-5H-pyrido[4,3-b]indol-7-yl)pyridin-2-yl)oxy)cyclobutoxy)piperidin-1-yl)ethyl)piperazin-1-yl)ethoxy)isoxazol-5-yl)butanoyl)-N-((S)-1-(4-(4-methylthiazol-5-yl)phenyl)ethyl) pyrrolidine-2-carboxamide]
remaining activity at 1 µM: > 50%

Cc1ncsc1-c1ccc([C@H](C)NC(=O)[C@@H]2C[C@@H](O)CN2C(=O)[C@@H](NC(=O)COCCOCCOCCOCCOc2ccc3cc(-n4ccc5ccncc54)ncc3c2)C(C)(C)C)cc1 [Compound 375, (2S,4R)-1-((S)-17-((3-(1H-pyrrolo[2,3-c]pyridin-1-yl)isoquinolin-7-yl)oxy)-2-(tert-butyl)-4-oxo-6,9,12,15-tetraoxa-3-azaheptadecanoyl)-4-hydroxy-N-((S)-1-(4-(4-methylthiazol-5-yl)phenyl)ethyl) pyrrolidine-2-carboxamide]
remaining activity at 1 µM: > 50%

O=C1CCC(N2C(=O)c3ccc(N4CCN(CCCC5CCN(CC6CC(Oc7ccc(-c8ccc9c(c8)[nH]c8ccncc89)cn7)C6)CC5)CC4)cc3C2=O)C(=O)N1 (centres unmarked) [Compound 376, 5-(4-(3-(1-(((1r,3r)-3-((5-(5H-pyrido[4,3-b]indol-7-yl)pyridin-2-yl)oxy)cyclobutyl)methyl)piperidin-4-yl)propyl)piperazin-1-yl)-2-(2,6-dioxopiperidin-3-yl)isoindoline-1,3-dione]
Tau Protein Degradation effect at 1 μM: B (>50% of tau protein remaining (≥50% of tau protein degraded))

Cc1ncsc1-c1ccc([C@H](C)NC(=O)[C@@H]2C[C@@H](O)CN2C(=O)[C@@H](NC(=O)COCCCCCN2CCC(OC3CC(Oc4ccc(-c5ccc6c7cnccc7n(C)c6c5)cn4)C3)CC2)C(C)(C)C)cc1 (stereo partly drawn) [Compound 377, (2S,4R)-1-((S)-3,3-dimethyl-2-(2-((5-(4-((1r,3r)-3-((5-(5-methyl-5H-pyrido[4,3-b]indol-7-yl)pyridin-2-yl)oxy)cyclobutoxy)piperidin-1-yl)pentyl)oxy)acetamido)butanoyl)-4-hydroxy-N-((S)-1-(4-(4-methythiazol-5-yl)phenyl)ethyl) pyrrolidine-2-carboxamide]
remaining activity at 1 µM: > 50%
